For one test, the system named is Snail. The experiment in a line: Snail expression in MCF7 cells (EMT-suppressing effect).
In test [1] the test system is peritoneal mesothelial cells.
Description: That is, this experiment was designed to examine the morphological change in the peritoneal mesothelial cells by high glucose treatment along with the expression levels of mRNA and proteins of fibrosis-mediating materials and the ECM-related materials.
To this end, the peritonea of the male wistar rats were dissected and their peritoneal mesothelial cells were subjected to primary culture using 0.25% trypsin-EDTA. The experiment was performed after dividing them into the following three groups:

Read-outs that look alike come from different tables or passages of the source.

As to `CC(=O)O.N=C(NC(=N)N1CCCC1)Nc1ccc(OC(F)(F)F)cc1` [Example 44, N1-pyrrolidine-N5-(4-trifluoromethoxy)phenyl biguanide acetate [N-(N-(4-(trifluoromethoxy)phenyl)carbamimidoyl)pyrrolidine-1-carboximidamideacetate]], the “suppression of the expression of Snail” value in the test with Snail is reported as “strongly suppress the expression of Snail”. In test [1], the “morphology of peritoneal mesothelial cells turned into myofibroblasts by high glucose treatment” value is reported as “returned to maintain a shape similar to that of the normal ones (a cobblestone shape)”.

In the case of `CN(C)C(=N)N=C(N)N` [metformin], the “suppression of the expression of Snail” value in the test with Snail (MCF7 cells, 1000 μM, FIG. 1) was “failed to suppress the expression of Snail”.

For `[H]/N=C(/N)N/C(=N/[H])NCCc1ccccc1` [phenformin], in the test with Snail (MCF7 cells, 10 μM, FIG. 1), the “suppression of the expression of Snail” value is on record as “did not show any effect regarding the suppression of Snail expression”.
